Reference: patent US11116799B2, “Generation of uniform hepatocytes from human embryonic stem cells by inhibiting TGF-beta and methods of maintaining hepatic cultures” (Wisconsin Alumni Research Foundation, priority 2016, dated 2021)
One block for each compound: values may come before it.

Key:
[1] = tested on: primary mouse hepatocytes; assay: RNA-Seq gene expression in primary mouse hepatocytes treated with kinase inhibitors; details: 10 μM, 72 hours
From the text: The next step was to determine if the PI3/Akt and MAPK pathways are involved in maintenance of hepatocyte maturation. We investigated whether small molecule inhibition of these pathways would mimic let-7's action and reduce the loss of mature function of hepatocytes in culture after removal from their microenvironment. […] Then, expression of the top ten important metabolic enzymes (CYPs, UGTs and transporters) by RNA-Seq with uncultured fresh hepatocytes and control vehicle hepatocytes treated for 72 hours was compared.
Hepatocytes from 6 black mice livers were isolated by perfusion following standard protocol and cultured on Matrigel coated plates in hepatocyte growth medium (Promocell). Whole developing livers from 6 black mice were used for RNA isolation with Trizol for let-7c measurements.
Total RNA (including microRNA) from all cells, which were not mentioned otherwise, were isolated using RNAeasy Plus Kit […] following manufacturers protocol. RNA-Seq was performed by LM-Seq (Illumina). MicroRNAs were sequenced using Illumina's small RNA sequencing kit. Expression of let-7 and U6 snoRNA were measured by quantitative PCR using ABI's kit. Let-7c expression levels were normalized by U6 snoRNA expression (RQ or relative quantity values, error bars representing standard error, RQ min and RQ max).
Multiple batches of cryopreserved induction qualified human hepatocytes (each batch being from one donor) were purchased from Life Technologies and cultured on Matrigel coated plates in hepatocyte growth medium (PromoCell). For dedifferentiation studies, hepatocytes from batches Hu4260, Hu8135, Hu4279 and Hu8137 were used after mixing equal number of live cells. For small molecule treatments, batch Hu4260 was used. Mouse hepatocytes were isolated from Black 6 mice livers by perfusion following standard protocol and cultured on Matrigel coated plates in hepatocyte growth medium (Promocell).
Total RNA were isolated using RNAeasy Plus Kit (Qiagen) following manufacturers protocol and qualified with the Life Technologies Qubit fluorometer and Agilent Bioanalyzer. […] Final indexed cDNA libraries were pooled and sequenced on an Illumina HiSeq 2500. Base-calling and demultiplexing were performed using Casava (v1.8.2). Sequences were filtered and trimmed to remove low quality reads, adapters, and other sequencing artifacts. The remaining reads were aligned to a reference database comprising only RefSeq-validated transcripts (i.e., assigned an “NM_” accession). Mouse samples were aligned to the mm10 assembly, and human samples were aligned to the hg19 assembly. […] Reads with more than 200 alignments were excluded from further analysis. […] All RNA-seq results have been deposited at NCBI's GEO under Accession No. GSE94353.
The inventors next investigated whether the MAPK and PI3/Akt pathways contributed to the dedifferentiation of hepatocytes. […] Rapamycin was included as a control, which is an inhibitor of the mTOR pathway, a serine/threonine kinase involved in cell signaling not identified as a key pathway in our analysis.

[2] = tested on: H9-ALB-GFP/AFP-Tomato (dual clone 1); assay: Gene expression of hepatocytes differentiated from ES cells with 3 or 18 days of Activin A; format: cell-based, human; parameters: scale not given here; details: dual clone 1 hepatocytes, unsorted
Protocol: The H9-ALB-GFP/AFP-Tomato (dual clone 1) were differentiated to hepatocytes using the protocol depicted in FIG. 4. Either 3 day or 18 days of Activin A treatment was used with the rest of the protocol being the same. The cells were not sorted and differentiated for 18 and 33 days (for 3 and 18 day DE respectively).
ES cells were cultured in E8 medium (Reference 2) and were differentiated to hepatocytes following a previously published protocol (Reference 1) with modifications. Briefly, at approximately 50% confluency the ES cells were singularized by accutase and seeded on matrigel coated plate in E6 medium containing 100 ng/ml Activin A (Sigma). They were cultured in the Activin A medium for seven days. From day 8 to day 12 the cells were treated with 25 ng/ml FGF4 (R&D Systems) along with 20 ng/ml BMP2 in E6. During days 13 through 17 the cells were treated with 20 ng/ml HGF (R&D Systems) and 10 ng/ml Oncostatin M (R&D Systems) in E6. Finally, the cells were cultured in E6 containing 0.1 μM Dexamethasone (Sigma) from day 18 to day 22. From day 8 onwards, SB431542 and DAPT were added to the medium to inhibit TGFB and NOTCH respectively at 10 μM final concentration.

hepatocytes = assay: Robotic compound screen for albumin and AFP expression in hepatocytes; format: cell-based
Protocol: A robotic screen was performed to determine compounds that increase expression of albumin in hepatocytes as an indicator that the compounds play a role in hepatocyte maturation. 1200 compounds were screened and 400 compounds analyzed for their effects on hepatocytes with regard to the levels of albumin and fetal marker AFP.

[3] = tested on: H9-ALB-GFP/AFP-Tomato (dual clone 1) derived hepatocytes; assay: RNA-Seq of ES-derived hepatocytes treated with Stauprimide; format: cell-based, human; parameters: HNF4A RNA-Seq expression / ADH4 RNA-Seq expression / BAAT RNA-Seq expression / SERPINC1 RNA-Seq expression / SERPINA1 RNA-Seq expression / ALB RNA-Seq expression / AFP RNA-Seq expression / UGT1A9 RNA-Seq expression / UGT1A1 RNA-Seq expression / UGT1A6 RNA-Seq expression: unit not given here; details: dual clone 1 ES-derived hepatocytes (CDI), 72 hrs
Protocol: The effects of Stauprimide in maturation of ES-derived hepatocytes was validated by RNA-Seq as described above. Briefly, the H9-ALB-GFP/AFP-Tomato (dual clone 1) were differentiated to a pure population of hepatocytes by CDI (Madison, Wis.) and treated with Stauprimide for 72 hours. […] Thus, Stauprimide is able to increase expression of mature hepatocyte genes and reduce the expression of the fetal marker AFP.

[4] = tested on: primary human hepatocytes (PHHs); assay: RNA-Seq gene expression in MAPK inhibitor treated primary human hepatocytes; format: cell-based
Protocol: […]. […] […].
For small RNA-Seq profiling, hepatocytes from Hu8082 were used; for de-differentiation time course and let-7c transduction, hepatocytes from Hu4260, Hu8135, Hu4279 and Hu8137 were used. For both experiments, cells from all 4 donors were mixed in equal numbers after assessment of viability. For small molecule treatments, batch Hu4260 was used.
RNA-Seq was performed by LM-Seq (Illumina).
For small molecule treatments, batch Hu4260 was used.
. To ascertain that the increase in metabolic enzymes took place through specific MAPK inhibition, PHHs were treated with a second MAPK inhibitor, PD0325901, for 72 hours, followed by RNA-Seq analysis (Supplementary Table 4). […].

HepG2 cells = assay: HepG2 viability / cell growth (cell counting by dye exclusion); format: cell-based, human; details: HepG2, 72 hours, compared to vehicle control
Protocol: CYP2C9 and 3A4 metabolism were measured using CYP450 Glo assay (Promega). In short, substrates were added to the media and incubated for 72 hours and the amount of metabolites generated were measured by adding the detection reagent and quantifying the luminescence in a Tecan® plate reader. Background was measured by incubating the substrates for 72 hours in the same media without cells. Cell counting for proliferation assay was carried out by dye exclusion in an automated cell counter (ThermoFisher).

[5] = 3 day Activin A (DE), differentiated 18 days
[6] = 18 day Activin A (DE), differentiated 33 days
[7] = primary human hepatocytes, treated 72 hours

CYP1A2 gene expression [1]: 80.54 transcripts per million | CYP2C9 gene expression [1]: 1332.65 transcripts per million | CYP2E1 gene expression [1]: 57.37 transcripts per million | CYP3A11 gene expression [1]: 1409.71 transcripts per million | CYP3A25 gene expression [1]: 61.42 transcripts per million
Compound: O=c1cc(N2CCOCC2)oc2c(-c3ccccc3)cccc12 [LY294002]
ABCC2 gene expression [1]: 232.34 transcripts per million | UGT1A6A gene expression [1]: 48.21 transcripts per million | UGT1A9 gene expression [1]: 15.27 transcripts per million | UGT1A10 gene expression [1]: 0.86 transcripts per million | UGT2B5 gene expression [1]: 196.44 transcripts per million

Compound: Activing A: Activin A, growth factor used to differentiate pluripotent stem cells to definitive endoderm
AFP gene expression [2, 5]: 1663.62 | ALB gene expression [2, 5]: 600.43 | CYP1A1 gene expression [2, 5]: 23.85 | CYP2C9 gene expression [2, 5]: 2.26 | CYP2D6 gene expression [2, 5]: 2.24 | CYP2E1 gene expression [2, 5]: 0 | CYP3A4 gene expression [2, 5]: 0.92 | U6T1A1 gene expression [2, 5]: 3.86 | UGT1A6 gene expression [2, 5]: 1.75 | AFP gene expression [2, 6]: 8635.2 | ALB gene expression [2, 6]: 5129.36 | CYP1A1 gene expression [2, 6]: 80.48 | CYP2C9 gene expression [2, 6]: 76.46 | CYP2D6 gene expression [2, 6]: 3.51 | CYP2E1 gene expression [2, 6]: 0.4 | CYP3A4 gene expression [2, 6]: 33.64 | U6T1A1 gene expression [2, 6]: 66.36 | UGT1A6 gene expression [2, 6]: 23.94

Compound: CO[C@@H]1[C@H](N(C)C(=O)c2ccccc2)C[C@H]2O[C@]1(C)n1c3ccccc3c3c4c(c5c6ccccc6n2c5c31)C(=O)NC4=O [Stauprimide]
expression of AFB (hepatocytes): did not increase expression | expression of albumin (hepatocytes): increased expression | ADH4 RNA-Seq expression [3]: 12.82 | AFP RNA-Seq expression [3]: 2485.61 | ALB RNA-Seq expression [3]: 8513.48 | BAAT RNA-Seq expression [3]: 10.4 | CYP2D6 RNA-Seq expression [3]: 0 TPM | CYP2E1 RNA-Seq expression [3]: 9.6 TPM | HNF4A RNA-Seq expression [3]: 25.97 | SERPINA1 RNA-Seq expression [3]: 10030.14 | SERPINC1 RNA-Seq expression [3]: 42.45 | UGT1A1 RNA-Seq expression [3]: 322.35 | UGT1A6 RNA-Seq expression [3]: 411.32 | UGT1A9 RNA-Seq expression [3]: 47.42 | CYP1A1 RNA-Seq expression ([3]; in TPM): 47.04 | CYP2C9 RNA-Seq expression ([3]; in TPM): 19.63

HBV receptor expression ([4]; PHHs treated 72 hours): upregulated | CYP1A2 gene expression [4, 7]: 1.87 transcripts per million | CYP1B1 gene expression [4, 7]: 3.56 transcripts per million | CYP2C9 gene expression [4, 7]: 73.61 transcripts per million | CYP2D6 gene expression [4, 7]: 1.24 transcripts per million | CYP2E1 gene expression [4, 7]: 4.94 transcripts per million | CYP3A4 gene expression [4, 7]: 22.44 transcripts per million
Compound: O=C(NOC[C@H](O)CO)c1ccc(F)c(F)c1Nc1ccc(I)cc1F [PD0325901]
AFP gene expression [4, 7]: 7.07 transcripts per million | ALB gene expression [4, 7]: 1293.62 transcripts per million | CD81 gene expression [4, 7]: 388.31 transcripts per million | SLCO1B1 gene expression [4, 7]: 151.48 transcripts per million | SLCO1B3 gene expression [4, 7]: 7.24 transcripts per million | UGT1A1 gene expression [4, 7]: 69.02 transcripts per million | UGT1A6 gene expression [4, 7]: 1337.30 transcripts per million | UGT1A9 gene expression [4, 7]: 87.51 transcripts per million | HepG2 viability / cell growth (HepG2 cells): increased cell death and growth arrest
